Measured values taken from patent US12385839B2, “Use of protein in predicting drug properties” (priority 2021, dated 2025).
Like-named read-outs stand apart in the source and are kept apart here.

Legend:
[1] = cited from earlier work; for LD50: modelling table; for Toxicity: toxicity grade by LD50, trailing figure = number of pesticides in group
[2] = target: T1, human serum albumin (HSA) (Homo sapiens, UniProt P02768); test: Circular dichroism spectrum, secondary structure (α-helix content) of HSA; details: HSA 2×10^−6 M
Protocol: the mixed solution to be tested was preheated at […] for 2-5 minutes, and the CD spectrum of HSA was recorded in the wavelength range of 200-500 nm . The concentration of HSA was kept at 2×10^−6 M, and the pesticide was (0-20)×10^−6 m. Firstly, HSA was measured, and then the ratio of HSA to pesticides needed to be determined specifically, which was preliminarily determined according to the ratio of 1:1, 1:2 and 1:3.
According to the following equation, the result of CD spectrum was usually expressed as the mean residue ellipticity (MRE), and the unit was deg·cm^2·dmol^−1. MRE=ObservedCD(mdeg)/(10Cpnl) (9);
in which Cp is the molar concentration of protein, n is the number (585) of amino acid residues, and 1 is the path length (1 mm). The α helicity of free and bound HSA is calculated from MRE values using the following formula: α−Helix(%)=[(−MRE208−4000)×100]/(33000-4000) (10)
in which the MRE208 is the MRE value observed at 208 nm , 4000 is the MRE value of random coil conformation at 208 nm , and […] is the MRE value of pure α helix at 208 nm .

[3] = target: T1, human serum albumin (HSA); test: Fluorescence emission spectrum (quenching) of HSA with carbamate pesticides; format: binding; details: for Kq / Ksv / n (number of binding sites) / Kd / Ka (binding constant): pH 7.4; for R (binding distance): Förster energy transfer; for fluorescence of HSA quenched by pesticide: titration of pesticide; for ΔH^0 / ΔS^0: Van't Hoff, 296-310 K
Protocol: the mixed solution to be tested was preheated at […] for 3 minutes, and the emission spectrum of HSA with carbamate pesticides was measured at 300-500 nm . The excitation wavelength was set at 280 nm , and the slit width for both excitation and emission was 15 nm; the HSA concentration was kept constant at 5×10^−7 M, and the pesticide concentration was (0-105)×10^−7 M.
The internal filtering effect of fluorescence signal was corrected according to the following formula: Fcor=Fobsexp[(Aex+Aem)/2] (1);
in this formula, Fcor and Fobs represent corrected fluorescence signal and observed fluorescence signal, respectively, and Aex and Aem represent absorbance of the mixed solution to be tested at excitation wavelength and emission wavelengths, respectively; the quenching constant, number of binding sites, binding constant, free energy and binding distance of different drugs were obtained by fluorescence emission spectra, and a BP neural network model was obtained. Specifically, they were obtained as follows:
There is a linear relationship between F0/F and [Q] to distinguish whether it is static quenching or dynamic quenching. The fluorescence quenching data are analyzed by Stern-Volmer equation to clarify the quenching mechanism: F0/F=1+KSV[Q]=1+Kqτ0[Q] (2);
in the formula, F0 and F are fluorescence signals […] quencher, respectively. Ksv is Stern-Volmer quenching constant; Kq is a quenching rate constant of biomolecules; τ0 is the average lifetime of biomolecules without quencher (about 10^−8 s); [Q] is the concentration of quencher.
The maximum dynamic quenching rate constant of all kinds of quenchers on polymers was 2.0×10^10 L·mol^−1·s^−1. Static quenching and dynamic quenching could be judged according to this value. If K^q was greater than 2.0×10^10 L·mol^−1·s^−1, it belonged to static quenching. Otherwise, it belonged to dynamic quenching.
In this part, the binding sites and binding constants between carbamate pesticides and HSA were calculated. The following formula was used to calculate the number of binding sites (n) and the binding constant (Ka) of carbamate pesticides and HSA: log[(F0−F)/F]=log Ka+nlog[Q] (3);
The interactions between biological molecules and drug molecules were weak intermolecular interactions, including hydrogen bonds, van der Waals forces, electrostatic forces and hydrophobic interactions. By using Van't Hoff equation, the thermodynamic constants of drug-protein interaction were obtained, and the main types of drug-protein interaction were judged according to the changes of binding constants under different conditions. LnK=−ΔH^0/RT+ΔS^0/R (4); ΔG^0=ΔH^0−TΔS^0 (5);
There is a relationship among energy transfer efficiency E, distance r between energy donor and energy receptor and energy transfer distance R0. E=1−F/F0=R0^6/(R0^6+r^6) (6);
E represents the transfer efficiency between donor and receptor, r is the average distance between donor and receptor, and R0 is the critical distance when the transfer efficiency is 50%. R0^6=8.79×10^−K^2N^−4φJ (7)
K^2 is the orientation related to the geometry of donor and receptor of dipole. For random orientation in fluid, K^2=2/3; N is the average refractive index of the medium in the wavelength range with obvious spectral overlap, and the refractive index of water and organic matter is 1.336; φ is the quantum yield of donor, and the quantum yield of tryptophan in HSA is about 0.118; J represents the influence of spectral overlap between the emission spectrum of the donor and the absorption spectrum of the receptor, and can be calculated by the following formula: j=ΣF(λ)ϵ(λ)λ^4Δλ/ΣF(λ) Δλ (8);
F(λ) is the corrected fluorescence signal of the donor in the wavelength range from λ to (λ+Δλ), while ϵ(λ) is the extinction coefficient of the receptor at λ.

[4] = 296 K, read-out: Ka (binding constant)
[5] = 303 K, read-out: Ka (binding constant)
[6] = 310 K, read-out: Ka (binding constant)

T1 sequence (P02768 25-609): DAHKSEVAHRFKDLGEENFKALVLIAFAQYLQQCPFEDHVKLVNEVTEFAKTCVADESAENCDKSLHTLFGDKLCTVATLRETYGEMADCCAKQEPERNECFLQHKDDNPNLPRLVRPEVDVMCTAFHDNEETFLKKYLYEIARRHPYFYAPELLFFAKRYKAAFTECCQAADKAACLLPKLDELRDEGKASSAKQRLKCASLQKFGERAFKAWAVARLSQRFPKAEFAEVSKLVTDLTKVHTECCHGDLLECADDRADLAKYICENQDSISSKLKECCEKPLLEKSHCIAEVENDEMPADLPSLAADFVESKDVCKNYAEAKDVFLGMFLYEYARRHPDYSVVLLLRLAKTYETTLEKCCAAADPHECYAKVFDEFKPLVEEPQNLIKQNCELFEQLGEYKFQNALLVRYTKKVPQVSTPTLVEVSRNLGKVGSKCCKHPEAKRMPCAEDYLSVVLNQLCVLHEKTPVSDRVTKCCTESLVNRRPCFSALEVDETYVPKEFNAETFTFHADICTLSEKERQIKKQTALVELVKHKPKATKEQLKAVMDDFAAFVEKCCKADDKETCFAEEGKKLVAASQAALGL

Compound	LD50 [1] [mg/kg]	Toxicity [1]	α-helix contents ([2]; 5:1 (Pesticide:HSA)) [%]	α-helix contents ([2]; 10:1 (Pesticide:HSA)) [%]	Ksv (37°) ([3]; 37°, modelling table)	ΔG(37°) ([3]; 37°, modelling table)	ΔG^0 ([3]; 296 K) [kcal/mol]	Kq ([3]; 296 K)	Ksv ([3]; 296 K)	n (number of binding sites) ([3]; 296 K)	ΔG^0 ([3]; 303 K) [kcal/mol]	Kq ([3]; 303 K)	Ksv ([3]; 303 K)	n (number of binding sites) ([3]; 303 K)	ΔG^0 ([3]; 310 K) [kcal/mol]	R (binding distance) ([3]; 310 K) [nm]	Kq ([3]; 310 K)	Ksv ([3]; 310 K)	n (number of binding sites) ([3]; 310 K)	fluorescence of HSA quenched by pesticide ([3]; 310 K)	other results
CCSCc1ccccc1OC(=O)NC [Ethiofencarb, ethiofencarb]	200	Moderately	49.087	48.340	41346.56830	−17.7	-3.4355	2.562 ± 0.137 10^12 M^−1s^−1	2.562 ± 0.137 10^4 M^−1	0.613 ± 0.003	-3.8329	3.301 ± 0.074 10^12 M^−1s^−1	3.301 ± 0.074 10^4 M^−1	0.645 ± 0.009	-4.2302	2.363	4.135 ± 0.166 10^12 M^−1s^−1	4.135 ± 0.166 10^4 M^−1	0.674 ± 0.002	quenched	Kd ([3]; Ka (binding constant), 296 K): 2920 µM; Kd ([3]; Ka (binding constant), 303 K): 1710 µM; Kd ([3]; Ka (binding constant), 310 K): 1050 µM; ΔH^0 [3]: 13.365 kcal/mol; ΔS^0 [3]: 237.483 J · mol^−1 · K^−1; Binding distance/r ([3]; modelling table): 2.363; Number of binding sites/n ([3]; modelling table): 0.6742
CNC(=O)ON=C(CSC)C(C)(C)C [Thiofanox, thiofanox]	8.5	Highly	48.904	48.180	58762.03726	−20.27	-4.2899	3.871 ± 0.035 10^12 M^−1s^−1	3.871 ± 0.035 10^4 M^−1	0.714 ± 0.014	-4.5667	4.728 ± 0.064 10^12 M^−1s^−1	4.728 ± 0.064 10^4 M^−1	0.725 ± 0.005	-4.8435	1.883	5.876 ± 0.198 10^12 M^−1s^−1	5.876 ± 0.198 10^4 M^−1	0.730 ± 0.003	quenched	Kd ([3]; Ka (binding constant), 296 K): 688 µM; Kd ([3]; Ka (binding constant), 303 K): 496 µM; Kd ([3]; Ka (binding constant), 310 K): 390 µM; ΔH^0 [3]: 7.4152 kcal/mol; ΔS^0 [3]: 165.452 J · mol^−1 · K^−1; Binding distance/r ([3]; modelling table): 1.883; Number of binding sites/n ([3]; modelling table): 0.7299
Trimethacarb	178	Moderately	52.233	48.283	47778.50539	−19.26	-4.0289	3.043 ± 0.160 10^12 M^−1s^−1	3.043 ± 0.160 10^4 M^−1	0.694 ± 0.002	-4.3162	4.204 ± 0.100 10^12 M^−1s^−1	4.204 ± 0.100 10^4 M^−1	0.696 ± 0.005	-4.6037	2.954	4.778 ± 0.093 10^12 M^−1s^−1	4.778 ± 0.093 10^4 M^−1	0.713 ± 0.001	quenched	Ka (37°) ([3]; 37°, modelling table): 1782; Ka (binding constant) ([3]; 296 K): (9.546 ± 0.118) × 10^2 M^−1; Ka (binding constant) ([3]; 303 K): (1.268 ± 0.092) × 10^3 M^−1; Ka (binding constant) ([3]; 310 K): (1.782 ± 0.036) × 10^3 M^−1; ΔH^0 [3]: 8.1233 kcal/mol; ΔS^0 [3]: 171.775 J · mol^−1 · K^−1; Binding distance/r ([3]; modelling table): 2.954; Number of binding sites/n ([3]; modelling table): 0.713
CNC(=O)ON=C(C)SC [Methomyl, methomyl]	14.7	Highly	50.756	49.970	52883.69408	−21.14	-3.8554	3.401 ± 0.068 10^12 M^−1s^−1	3.401 ± 0.068 10^4 M^−1	0.661 ± 0.003	-4.4534	4.025 ± 0.136 10^12 M^−1s^−1	4.025 ± 0.136 10^4 M^−1	0.727 ± 0.008	-5.0514	2.145	5.288 ± 0.093 10^12 M^−1s^−1	5.288 ± 0.093 10^4 M^−1	0.766 ± 0.002	quenched	Kd [3, 4]: 1460 µM; Kd [3, 5]: 579 µM; Kd [3, 6]: 283 µM; ΔH^0 [3]: 21.433 kcal/mol; ΔS^0 [3]: 357.453 J · mol^−1 · K^−1; Binding distance/r ([3]; modelling table): 2.145; Number of binding sites/n ([3]; modelling table): 0.7657
CNC(=O)O/N=C(\C)C(C)S(C)(=O)=O (stereo not shown) [Butoxycarboxim, butoxycarboxim]	458	Moderately	53.753	52.790	62644.83638	−20.24	-3.7366	2.888 ± 0.064 10^12 M^−1s^−1	2.888 ± 0.064 10^4 M^−1	0.658 ± 0.002	-4.2875	4.798 ± 0.112 10^12 M^−1s^−1	4.798 ± 0.112 10^4 M^−1	0.679 ± 0.002	-4.8384	1.964	6.264 ± 0.074 10^12 M^−1s^−1	6.264 ± 0.074 10^4 M^−1	0.725 ± 0.001	quenched	Kd [3, 4]: 1720 µM; Kd [3, 5]: 832 µM; Kd [3, 6]: 382 µM; ΔH^0 [3]: 19.556 kcal/mol; ΔS^0 [3]: 329.251 J · mol^−1 · K^−1; Binding distance/r ([3]; modelling table): 1.964; Number of binding sites/n ([3]; modelling table): 0.725
